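All cell lines were grown in 96-well plates and treated with compound for 48 hours. Abbreviation: GI50, concentration required for 50% inhibition of growth.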 Calls of active or inactive are those of the source. Rule as the data show it: active = GI50 up to about 1.1 µM and inactive = higher.
Tests used:
Experiment in all cases: DTP human tumour cell line panel, 48 h
[1] = system: MDA-N
[2] = system: SF-268
[3] = system: OVCAR-8
[4] = system: M14
[5] = system: EKVX
[6] = system: LOX IMVI
[7] = system: UACC-62
[8] = system: SW-620
[9] = system: SR
[10] = system: OVCAR-5
[11] = system: DU-145
[12] = system: MDA-MB-435
[13] = system: HT-29
[14] = system: A498
[15] = system: MCF7
[16] = system: A549
[17] = system: MDA-MB-231
[18] = system: UACC-257
[19] = system: HCT-116
[20] = system: IGROV-1
[21] = system: SK-MEL-2
[22] = system: SNB-75
[23] = system: NCI-H226
[24] = system: U-251
[25] = system: SK-MEL-28
[26] = system: SNB-19
[27] = system: ACHN
[28] = system: UO-31
[29] = system: K562
[30] = system: SK-MEL-5
[31] = system: T47D
[32] = system: Hs-578T
[33] = system: KM12
[34] = system: SK-OV-3
[35] = system: HCC 2998
[36] = system: MOLT-4
[37] = system: OVCAR-4
[38] = system: CCRF-CEM
[39] = system: HOP-62
[40] = system: COLO 205
[41] = system: SF-295
[42] = system: HL-60
[43] = system: 786-0
[44] = system: NCI-H460
[45] = system: RXF 393
[46] = system: OVCAR-3
[47] = system: HOP-92
[48] = system: CAKI-1
[49] = system: SN12C
[50] = system: BT-549
[51] = system: HCT-15
[52] = system: RPMI-8226
[53] = system: NCI/ADR-RES
[54] = system: NCI-H522
[55] = system: TK-10
[56] = system: SF-539
[57] = system: NCI-H23
[58] = system: Malme-3M
[59] = system: PC-3

CN(C)CCNc1ccc(CO)c2oc3ccc(O)cc3c(=O)c12
GI50 [1]: 12.8 µM (inactive) | GI50 [2]: 9.31 µM (inactive) | GI50 [3]: 7140 nM (inactive) | GI50 [4]: 15.7 µM (inactive) | GI50 [5]: 21.9 µM (inactive) | GI50 [6]: 11.5 µM (inactive) | GI50 [7]: 11.5 µM (inactive) | GI50 [8]: 8.97 µM (inactive) | GI50 [9]: 1.14 µM (inactive) | GI50 [10]: 16.8 µM (inactive) | GI50 [11]: 20.1 µM (inactive) | GI50 [12]: 13.8 µM (inactive) | GI50 [13]: 11.3 µM (inactive) | GI50 [14]: 12.7 µM (inactive) | GI50 [15]: 4.83 µM (inactive) | GI50 [16]: 14.6 µM (inactive) | GI50 [17]: 17 µM (inactive) | GI50 [18]: 12.8 µM (inactive) | GI50 [19]: 6.4 µM (inactive) | GI50 [20]: 19.1 µM (inactive) | GI50 [21]: 16.6 µM (inactive) | GI50 [22]: 12.6 µM (inactive) | GI50 [23]: 11.7 µM (inactive) | GI50 [24]: 12.4 µM (inactive) | GI50 [25]: 16.9 µM (inactive) | GI50 [26]: 17.1 µM (inactive) | GI50 [27]: 7.45 µM (inactive) | GI50 [28]: 10.5 µM (inactive) | GI50 [29]: 10.2 µM (inactive) | GI50 [30]: 14.2 µM (inactive) | GI50 [31]: 13.3 µM (inactive) | GI50 [32]: 14 µM (inactive) | GI50 [33]: 14.4 µM (inactive) | GI50 [34]: 14.4 µM (inactive) | GI50 [35]: 14 µM (inactive) | GI50 [36]: 2.47 µM (inactive) | GI50 [37]: 13.8 µM (inactive) | GI50 [38]: 4.56 µM (inactive) | GI50 [39]: 10.3 µM (inactive) | GI50 [40]: 8.97 µM (inactive) | GI50 [41]: 14.2 µM (inactive) | GI50 [42]: 10800 nM (inactive) | GI50 [43]: 8.61 µM (inactive) | GI50 [44]: 4.24 µM (inactive) | GI50 [45]: 12.6 µM (inactive) | GI50 [46]: 16.5 µM (inactive) | GI50 [47]: 15.7 µM (inactive) | GI50 [48]: 21.6 µM (inactive) | GI50 [49]: 12.9 µM (inactive) | GI50 [50]: 14.6 µM (inactive) | GI50 [51]: 14.4 µM | GI50 [52]: 12.3 µM (inactive) | GI50 [53]: 21.3 µM (inactive) | GI50 [54]: 4.32 µM (inactive) | GI50 [55]: 17.1 µM (inactive) | GI50 [56]: 12.3 µM (inactive) | GI50 [57]: 11.5 µM (inactive) | GI50 [58]: 13.5 µM (inactive) | GI50 [59]: 12700 nM (inactive)

CC(=O)c1ccc(Nc2c3ccccc3nc3occc23)cc1
GI50 [1]: < 0.01 µM (active) | GI50 [2]: < 0.0105 µM (active) | GI50 [3]: 17.4 nM (active) | GI50 [4]: < 0.01 µM (active) | GI50 [6]: < 0.0143 µM (active) | GI50 [7]: < 0.01 µM (active) | GI50 [8]: < 0.01 µM (active) | GI50 [9]: < 0.01 µM (active) | GI50 [10]: 0.327 µM (active) | GI50 [11]: 0.0213 µM (active) | GI50 [12]: < 0.01 µM (active) | GI50 [13]: < 0.01 µM (active) | GI50 [14]: 2.32 µM (inactive) | GI50 [15]: < 0.01 µM (active) | GI50 [16]: 0.124 µM (active) | GI50 [17]: 0.0194 µM (active) | GI50 [18]: 17.1 µM (inactive) | GI50 [19]: < 0.01 µM (active) | GI50 [20]: < 0.01 µM (active) | GI50 [21]: 0.0108 µM (active) | GI50 [22]: 0.0109 µM (active) | GI50 [23]: 0.168 µM (active) | GI50 [24]: < 0.0124 µM (active) | GI50 [25]: 0.643 µM (active) | GI50 [26]: < 0.0168 µM (active) | GI50 [27]: < 0.01 µM (active) | GI50 [28]: 0.0196 µM (active) | GI50 [29]: < 0.01 µM (active) | GI50 [30]: < 0.0219 µM (active) | GI50 [31]: 0.011 µM (active) | GI50 [32]: 0.0152 µM (active) | GI50 [33]: < 0.01 µM (active) | GI50 [34]: 0.0402 µM (active) | GI50 [35]: 0.0498 µM (active) | GI50 [36]: < 0.01 µM (active) | GI50 [37]: < 0.0246 µM (active) | GI50 [38]: < 0.01 µM (active) | GI50 [39]: 0.0127 µM (active) | GI50 [40]: < 0.01 µM (active) | GI50 [41]: < 0.01 µM (active) | GI50 [42]: < 10 nM (active) | GI50 [43]: < 0.01 µM (active) | GI50 [44]: 0.01 µM (active) | GI50 [45]: < 0.01 µM (active) | GI50 [46]: < 0.01 µM (active) | GI50 [47]: 2.56 µM (inactive) | GI50 [48]: < 0.01 µM (active) | GI50 [49]: 0.0172 µM (active) | GI50 [50]: 2.12 µM (inactive) | GI50 [51]: < 0.01 µM | GI50 [52]: < 0.01 µM (active) | GI50 [53]: < 0.01 µM (active) | GI50 [54]: < 0.01 µM (active) | GI50 [55]: 0.0371 µM (active) | GI50 [56]: < 0.01 µM (active) | GI50 [57]: 0.175 µM (active) | GI50 [58]: < 0.01 µM (active) | GI50 [59]: < 10 nM (active)

CCO[C@H]1O[C@@H]2OC3(C)CCC4[C@H](C)CCC([C@H]1C)[C@]42OO3 (stereo not given in full)
GI50 [1]: 49.7 µM (inactive) | GI50 [2]: > 100 µM (inactive) | GI50 [3]: 881 nM (active) | GI50 [4]: 53.5 µM (inactive) | GI50 [5]: > 49.1 µM (inactive) | GI50 [6]: 24.2 µM (inactive) | GI50 [7]: > 67.1 µM (inactive) | GI50 [8]: > 44.9 µM (inactive) | GI50 [9]: 10.3 µM (inactive) | GI50 [10]: > 30.2 µM (inactive) | GI50 [11]: > 100 µM (inactive) | GI50 [12]: 19.1 µM (inactive) | GI50 [13]: 61.2 µM (inactive) | GI50 [14]: > 100 µM (inactive) | GI50 [15]: 19.4 µM (inactive) | GI50 [16]: 40.8 µM (inactive) | GI50 [17]: > 57 µM (inactive) | GI50 [19]: 35.2 µM (inactive) | GI50 [20]: > 73.8 µM (inactive) | GI50 [21]: > 100 µM (inactive) | GI50 [22]: > 74.1 µM (inactive) | GI50 [23]: > 100 µM (inactive) | GI50 [24]: 42.7 µM (inactive) | GI50 [25]: > 75.5 µM (inactive) | GI50 [26]: > 100 µM (inactive) | GI50 [27]: 32.2 µM (inactive) | GI50 [28]: 15.4 µM (inactive) | GI50 [29]: 15.9 µM (inactive) | GI50 [30]: 16 µM (inactive) | GI50 [31]: 7.11 µM (inactive) | GI50 [32]: 29.9 µM (inactive) | GI50 [33]: > 53.2 µM (inactive) | GI50 [34]: > 100 µM (inactive) | GI50 [35]: 97.1 µM (inactive) | GI50 [36]: 7.91 µM (inactive) | GI50 [37]: 25.8 µM (inactive) | GI50 [38]: 3.44 µM (inactive) | GI50 [39]: > 100 µM (inactive) | GI50 [40]: 2.98 µM (inactive) | GI50 [41]: > 20.2 µM (inactive) | GI50 [42]: 159 nM (active) | GI50 [43]: 57.5 µM (inactive) | GI50 [44]: > 55 µM (inactive) | GI50 [45]: > 100 µM (inactive) | GI50 [46]: 15.5 µM (inactive) | GI50 [47]: > 100 µM (inactive) | GI50 [48]: > 100 µM (inactive) | GI50 [49]: 68.2 µM (inactive) | GI50 [50]: > 100 µM (inactive) | GI50 [51]: 23.9 µM | GI50 [52]: 3.3 µM (inactive) | GI50 [53]: 23 µM (inactive) | GI50 [54]: 43.5 µM (inactive) | GI50 [55]: > 95.5 µM (inactive) | GI50 [56]: > 84.7 µM (inactive) | GI50 [57]: 32.1 µM (inactive) | GI50 [58]: 42.3 µM (inactive) | GI50 [59]: 729 nM (active)
